Measured values from patent publication US9006221B2, “Method of modulating ship activity” (H. Lee Moffitt Cancer Center and Reserach Institute, Inc., priority 2008, dated 2015).

Tested on: MG63 cells
Test: MTT cell viability assay, MG63
Format: cell-based
Settings: MG63, lacks SHIP1 expression, 36 hours
Procedure: (A) SHIP1 expression in KG1 and MG63 cells was determined by Western blotting (top). Membranes were reprobed with antibodies against b-actin to confirm equal loading (lower panel). One representative blot of 2 individual experiments is shown. (B) KG1 and MG63 cells were plated in duplicate in 96 well plates, and treated for 36 hours with increasing concentrations of the 3α-aminocholestane. Cell viability was assessed by MTT assay. Results represent the mean of three individual experiments. (C) KG1 cells were treated with increasing concentrations of 3α-aminocholestane for 36 hours and hallmarks of apoptosis were identified in cell lysates by Western Blot analysis. […] (D) KG1 cells were treated with increasing concentrations of 3α-aminocholestane, and the percentage of AnnexinV and PI positive cells was determined by FACS analysis. […]
Cell viability assay: Cells were treated in duplicate for 36 hours with increasing concentrations of 3α-aminocholestane or vehicle. […] Formed crystals were dissolved in dimethyl sulfoxide and optical density (OD) was measured at 570 nm. The OD of compound treated cells was divided by the OD of their vehicle control, and the viability was expressed as a percentage of untreated cells. Results are expressed as mean±SEM of three individual experiments.

With `CC(C)CCC[C@@H](C)[C@H]1CC[C@H]2[C@@H]3CC[C@H]4C[C@H](N)CC[C@]4(C)[C@H]3CC[C@]12C` [NSC23922, (3R,5S,8R,9S,10S,13R,14S,17R)-10,13-dimethyl-17-[(2R)-6-methylheptan-2-yl]-2,3,4,5,6,7,8,9,11,12,14,15,16,17-tetradecahydro-1H-cyclopenta[a]phenanthren-3-amine] the “growth and survival of cells (MTT viability)” value was “not in cells that lacks SHIP1 expression”.
